{"source": "patent US7067112B2", "about": "“Cephaibols: novel antiparasitics from Acremonium tubakii, process for their production, and use thereof” (Sanofi-Aventis Deutschland GmbH, priority 1999, dated 2006)", "key": {"Escherichia coli 1507 E": {"test_system": "Escherichia coli 1507 E", "assay": "minimal inhibitory concentration (MIC)", "assay_type": "cell-based"}, "[1]": {"test_system": "Staphylococcus aureus 285", "assay": "minimal inhibitory concentration (MIC)", "assay_type": "cell-based"}, "[2]": {"test_system": "Streptococcus pyogenes 308 A", "assay": "minimal inhibitory concentration (MIC)", "assay_type": "cell-based"}, "[3]": {"test_system": "Bordetella bronchiseptica ATCC 4617", "assay": "minimal inhibitory concentration (MIC)", "assay_type": "cell-based"}, "Mycoplasma gallisepticum": {"test_system": "Mycoplasma gallisepticum", "assay": "minimal inhibitory concentration (MIC)", "assay_type": "cell-based"}, "[4]": {"test_system": "Bordetella bronchiseptica 10", "assay": "minimal inhibitory concentration (MIC)", "assay_type": "cell-based"}, "[5]": {"test_system": "Streptococcus pyogenes 77 A", "assay": "minimal inhibitory concentration (MIC)", "assay_type": "cell-based"}, "[6]": {"test_system": "Pasteurella haemolytica 7", "assay": "minimal inhibitory concentration (MIC)", "assay_type": "cell-based"}, "[7]": {"assay": "stability (physicochemical properties)", "settings": "in neutral, mildly acidic and mildly alkaline medium", "source_text": "(§1) The physicochemical and spectroscopic properties of the cephaibols according to the invention can be summarized as follows: […]"}, "[8]": {"test_system": "Bordetella bronchiseptica 9", "assay": "minimal inhibitory concentration (MIC)", "assay_type": "cell-based"}, "[9]": {"test_system": "Pseudomonas aeruginosa ATCC 27853", "assay": "minimal inhibitory concentration (MIC)", "assay_type": "cell-based"}, "[10]": {"test_system": "Enterococcus faecalis ATCC 29212", "assay": "minimal inhibitory concentration (MIC)", "assay_type": "cell-based"}, "[11]": {"test_system": "Enterobacter cloacae P 99", "assay": "minimal inhibitory concentration (MIC)", "assay_type": "cell-based"}, "[12]": {"test_system": "Pseudomonas aeruginosa 1771", "assay": "minimal inhibitory concentration (MIC)", "assay_type": "cell-based"}, "[13]": {"test_system": "Klebsiella aerogenes 1082 E", "assay": "minimal inhibitory concentration (MIC)", "assay_type": "cell-based"}, "Escherichia coli DC 2": {"test_system": "Escherichia coli DC 2", "assay": "minimal inhibitory concentration (MIC)", "assay_type": "cell-based"}, "Escherichia coli DC 0": {"test_system": "Escherichia coli DC 0", "assay": "minimal inhibitory concentration (MIC)", "assay_type": "cell-based"}, "[14]": {"test_system": "larvae of the chicken roundworm Ascaridia galli", "assay": "larval development test (in vitro) for anthelmintic action", "assay_type": "cell-based", "settings": "A. galli L2 larvae, 5 days medication", "method": "For the testing of the action of the cephaibols on helminths, an in vitro test (larval development test) was carried out with larvae of the chicken roundworm Ascaridia galli. Embryonate eggs of A. galli were surface-sterilized by treatment with 5% strength sodium hypochlorite solution and, after removal of this solution, mechanically opened by means of rotating glass beads (5 mm). The hatched L2 larvae were enriched via larval enrichment processes, taken up in nutrient medium and incubated at 41° C. and 10% CO2.\n48 hours after hatching, the larvae were incubated (41° C., 10% CO2) in microtiter plates (96 well) for 5 days with medicated medium (200 μl) in the concentrations 200, 100, 50 . . . 0.1 μg/ml. During the 5-day incubation period, motility, morphology, and vitality were checked microscopically and documented on a daily basis. After medication, the larval culture was incubated for 48 hours with Neutral Red in a concentration of 0.16%; after removal of the Neutral Red by change of medium, the enrichment of the vital dye in the intestine of the larvae was assessed as an index for active food intake and thus as proof of the vitality. The medication of the larvae with cephaibol A in the concentrations 200, 100, 50, and 25 μg/ml led to 100% mortality; at a concentration of 12.5 μg/ml and 6.25 μg/ml, the mortality was 92% and 20% respectively."}, "[15]": {"test_system": "Escherichia coli ATCC 25922", "assay": "minimal inhibitory concentration (MIC)", "assay_type": "cell-based"}, "[16]": {"test_system": "Pseudomonas aeruginosa 77/2", "assay": "minimal inhibitory concentration (MIC)", "assay_type": "cell-based"}, "[17]": {"test_system": "Pasteurella multocida 3;tox.pos.", "assay": "minimal inhibitory concentration (MIC)", "assay_type": "cell-based"}, "[18]": {"test_system": "cat flea=Ctenocephalides felis", "assay": "flea larval test (action on ectoparasites)", "assay_type": "in vivo", "settings": "depending on the dose (2000, 1000, 500, 250 ppm etc. in blood meal), in comparison with the solvent control", "method": "The action against ectoparasites was checked in the flea larval test (cat flea=Ctenocephalides felis). 5 mg of cephaibol A were dissolved in 0.5 ml of acetone and mixed into 500 mg of blood meal (defibrinated sheep blood). After the solvent had evaporated, 2 g of quartz sand were mixed with medicated blood meal such that preparation concentrations of 2000, 1000, 500, 250 ppm etc. resulted. 15 flea eggs per medicated sample or solvent control were added to the mixture of medicated blood meal and quartz sand, which was then incubated at 37° C. and high atmospheric humidity. The larval development, pupation and development to the adult stage were checked at an interval of 3–5 days and the mortality rates were documented."}, "[19]": {"test_system": "Pasteurella haemolytica P 53", "assay": "minimal inhibitory concentration (MIC)", "assay_type": "cell-based"}, "[20]": {"test_system": "Enterococcus hirae ATCC 10541", "assay": "minimal inhibitory concentration (MIC)", "assay_type": "cell-based"}, "Escherichia coli TEM": {"test_system": "Escherichia coli TEM", "assay": "minimal inhibitory concentration (MIC)", "assay_type": "cell-based"}, "[21]": {"test_system": "Pasteurella multocida P 48", "assay": "minimal inhibitory concentration (MIC)", "assay_type": "cell-based"}, "[22]": {"test_system": "Klebsiella oxytoca 1522 E", "assay": "minimal inhibitory concentration (MIC)", "assay_type": "cell-based"}, "[23]": {"assay": "solubility (physicochemical properties)", "source_text": "as §1"}, "[24]": {"test_system": "Staphylococcus aureus ATCC 29213", "assay": "minimal inhibitory concentration (MIC)", "assay_type": "cell-based"}, "[25]": {"test_system": "Pseudomonas aeruginosa 1771 M", "assay": "minimal inhibitory concentration (MIC)", "assay_type": "cell-based"}, "[26]": {"test_system": "Enterobacter cloacae 1321 E", "assay": "minimal inhibitory concentration (MIC)", "assay_type": "cell-based"}, "[27]": {"test_system": "Pseudomonas aeruginosa ATCC 9027", "assay": "minimal inhibitory concentration (MIC)", "assay_type": "cell-based"}}, "note": "Square brackets hold non-standard residues; d marks the D form. Peptide text beside a SMILES is read from it. Hyp = O=C(O)[CH]1C[CH](O)CN1; Phe(ol) = N[CH](CO)Cc1ccccc1; Iva = CC[C](C)(N)C(=O)O; Aib = CC(C)(N)C(=O)O", "data": [{"smiles": "CCC(C)(NC(=O)C(CC(C)C)NC(=O)CNC(=O)C(C)(C)NC(=O)C(C)(C)NC(=O)C(C)(C)NC(=O)C(C)(C)NC(=O)C(Cc1ccccc1)NC(C)=O)C(=O)NC(C)(C)C(=O)N1CC(O)CC1C(=O)NC(CCC(N)=O)C(=O)NC(C)(CC)C(=O)N1CC(O)CC1C(=O)NC(C)(C)C(=O)N1CCCC1C(=O)NC(CO)Cc1ccccc1", "note": "(stereo not drawn) [Cephaibol A, AcPhe-Aib-Aib-Aib-Aib-Gly-Leu-Iva-Aib-Hyp-Gln-Iva-Hyp-Aib-Pro-Phe-ol] (Ac-F[Aib][Aib][Aib][Aib]GL[Iva][Aib][Hyp]Q[Iva][Hyp][Aib]P[Phe(ol)]; configuration not given here)", "values": [{"measurement": "MIC", "setting": "Mycoplasma mycoides LC", "value": 128, "unit": "µg/mL"}, {"measurement": "MIC", "setting": "Mycoplasma mycoides L", "value": 64, "unit": "µg/mL"}, {"measurement": "MIC", "setting": "Escherichia coli 1507 E", "value": ">128", "unit": "µg/mL"}, {"measurement": "MIC", "setting": "[1]", "value": 8, "unit": "µg/mL"}, {"measurement": "MIC", "setting": "[2]", "value": 32, "unit": "µg/mL"}, {"measurement": "MIC", "setting": "[3]", "value": ">128", "unit": "µg/mL"}, {"measurement": "MIC", "setting": "Mycoplasma gallisepticum", "value": 64, "unit": "µg/mL"}, {"measurement": "MIC", "setting": "[4]", "value": ">128", "unit": "µg/mL"}, {"measurement": "MIC", "setting": "[5]", "value": ">128", "unit": "µg/mL"}, {"measurement": "MIC", "setting": "[6]", "value": ">128", "unit": "µg/mL"}, {"measurement": "stability", "setting": "[7]", "value": "stable"}, {"measurement": "MIC", "setting": "[8]", "value": ">128", "unit": "µg/mL"}, {"measurement": "MIC", "setting": "[9]", "value": ">128", "unit": "µg/mL"}, {"measurement": "MIC", "setting": "[10]", "value": 64, "unit": "µg/mL"}, {"measurement": "MIC", "setting": "[11]", "value": ">128", "unit": "µg/mL"}, {"measurement": "MIC", "setting": "[12]", "value": ">128", "unit": "µg/mL"}, {"measurement": "MIC", "setting": "[13]", "value": ">128", "unit": "µg/mL"}, {"measurement": "MIC", "setting": "Escherichia coli DC 2", "value": ">128", "unit": "µg/mL"}, {"measurement": "MIC", "setting": "Escherichia coli DC 0", "value": ">128", "unit": "µg/mL"}, {"measurement": "mortality", "setting": "[14]; 6.25 μg/ml", "value": 20, "unit": "%"}, {"measurement": "mortality", "setting": "[14]; 12.5 μg/ml", "value": 92, "unit": "%"}, {"measurement": "mortality", "setting": "[14]; 25 μg/ml", "value": 100, "unit": "%"}, {"measurement": "mortality", "setting": "[14]; 50 μg/ml", "value": 100, "unit": "%"}, {"measurement": "mortality", "setting": "[14]; 100 μg/ml", "value": 100, "unit": "%"}, {"measurement": "mortality", "setting": "[14]; 200 μg/ml", "value": 100, "unit": "%"}, {"measurement": "MIC", "setting": "[15]", "value": ">128", "unit": "µg/mL"}, {"measurement": "MIC", "setting": "[16]", "value": ">128", "unit": "µg/mL"}, {"measurement": "MIC", "setting": "[17]", "value": ">128", "unit": "µg/mL"}, {"measurement": "larvicidal action", "setting": "[18]", "value": "> 90", "unit": "%"}, {"measurement": "MIC", "setting": "[19]", "value": ">128", "unit": "µg/mL"}, {"measurement": "MIC", "setting": "[20]", "value": 64, "unit": "µg/mL"}, {"measurement": "MIC", "setting": "Escherichia coli TEM", "value": ">128", "unit": "µg/mL"}, {"measurement": "MIC", "setting": "[21]", "value": ">128", "unit": "µg/mL"}, {"measurement": "MIC", "setting": "[22]", "value": ">128", "unit": "µg/mL"}, {"measurement": "solubility in polar organic solvents", "setting": "[23]; polar organic solvents", "value": "soluble"}, {"measurement": "solubility in water", "setting": "[23]; water", "value": "only slightly soluble"}, {"measurement": "MIC", "setting": "[24]", "value": 16, "unit": "µg/mL"}, {"measurement": "MIC", "setting": "[25]", "value": ">128", "unit": "µg/mL"}, {"measurement": "MIC", "setting": "[26]", "value": ">128", "unit": "µg/mL"}, {"measurement": "MIC", "setting": "[27]", "value": ">128", "unit": "µg/mL"}]}]}
